Experimental data as given in patent US8247423B2, “Methods and compositions for the treatment of cancer, tumors, and tumor-related disorders” (Tragara Pharmaceuticals, Inc., priority 2007, dated 2012).

Test: clinical
Settings: human, in vivo, po
Description: Methods: Subjects with recurrent or metastatic NSCLC were treated with erlotinib (150 mg/day PO) and escalating doses of 2-(4-ethoxyphenyl)-4-methyl-1-(4-sulfamoylphenyl)-pyrrole (100-1200 mg/day PO). Pharmacokinetics for 2-(4-ethoxyphenyl)-4-methyl-1-(4-sulfamoylphenyl)-pyrrole and erlotinib were evaluated.

Tmax: 2 h
half-life: 11.8 h
Structure (SMILES): CCOc1ccc(-c2cc(C)cn2-c2ccc(S(N)(=O)=O)cc2)cc1
